From PubChem BioAssay AID1963856 (Molecular Pharmacology Branch, DTP, NCI, 2024) come the findings set out here.

Where “and” joins values, the source holds several entries; their conditions need not be identical. Equal entries are not always repeated.

This experiment concerns LG0567-F671-PDC KRAS tumor spheroid viability. Put plainly: Anticancer human tumor LG0567-F671-PDC patient-derived lung adenocarcinoma cell line growth inhibition [KRAS2]. As to conditions: spheroids with HUVEC and MSC; for viability, T/C: stronger effect = lower value. Put shortly: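 Combination screen of spheroid viability in tumor-cell co-cultures with endothelial (HUVEC) and mesenchymal stem cell stroma. Each agent was tested in half-log dilutions, topping at clinical Cmax or at 10 microM without a known Cmax.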

Setting [1] is: curve of first compound, second compound 0.1 µM.
The mark [2] stands for this setting: curve of first compound, second compound 0.316 µM.
Setting [3] is: curve of first compound, second compound 1 µM.
Setting [4] is: curve of first compound, second compound 3.16 µM.
[5] abbreviates: curve of first compound, second compound 10 µM.
[6] abbreviates: second compound 0.1 µM, first compound 0.0316 µM.
[7] abbreviates: second compound 0.1 µM, first compound 0.1 µM.
Setting [8] is: second compound 0.316 µM, first compound 0.0316 µM.
The mark [9] stands for this setting: second compound 0.316 µM, first compound 0.1 µM.
[10] abbreviates: second compound 1 µM, first compound 0.0316 µM.
[11] abbreviates: second compound 1 µM, first compound 0.1 µM.
[12] abbreviates: second compound 3.16 µM, first compound 0.0316 µM.
Setting [13] is: second compound 3.16 µM, first compound 0.1 µM.
The mark [14] stands for this setting: second compound 10 µM, first compound 0.0316 µM.
[15] abbreviates: second compound 10 µM, first compound 0.1 µM.
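Note: drug exposure lasted seven days after spheroids formed for three days.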
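Throughout, for viability, T/C: 100% = DMSO vehicle control viability.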

One may read the viability, T/C as the result in the treated group divided by that in the control group, in per cent. Regarding `CC(=O)OC12COC1CC(O)C1(C)C(=O)C(O)C3=C(C)C(OC(=O)C(O)C(NC(=O)OC(C)(C)C)c4ccccc4)CC(O)(C(OC(=O)c4ccccc4)C21)C3(C)C` (stereo not given), the viability, T/C is, setting by setting: (compound 0.01 µM) 67% [middle of 5 runs]; (compound 0.0316 µM) 57.6% [middle of 5 runs]; (compound 0.1 µM) 63.3% [middle of 5 runs]; (compound 0.316 µM) 63.1% [middle of 5 runs]; (compound 1 µM) 73.7% [middle of 5 runs]; (compound 3.16 µM) 70.1% [middle of 5 runs].

As usually defined, the IC50 is the midpoint of a concentration-inhibition curve. For `Cn1ncnc1[C@H]1c2n[nH]c(=O)c3cc(F)cc(c23)N[C@@H]1c1ccc(F)cc1` + C=CC(=O)N1CCN(c2nc(=O)n(-c3c(C)ccnc3C(C)C)c3nc(-c4c(O)cccc4F)c(F)cc23)C(C)C1, the IC50 by setting is: under setting [1], < 0.316 nM; under setting [2], < 0.316 nM; under setting [3], < 0.316 nM; under setting [4], < 0.316 nM; under setting [5], < 0.316 nM. Moreover, the viability, T/C is, setting by setting: (second compound 0.1 µM, first compound 0.000316 µM) 24.7%; (second compound 0.1 µM, first compound 0.001 µM) 27.1%; (second compound 0.1 µM, first compound 0.00316 µM) 21.8%; (second compound 0.1 µM, first compound 0.01 µM) 21.3%; under setting [6], 23.8%; under setting [7], 24.4%. Further, the viability, T/C (second compound 0.316 µM, first compound 0.000316 µM) was 25.5%; the viability, T/C (second compound 0.316 µM, first compound 0.001 µM) was 26.2%; the viability, T/C (second compound 0.316 µM, first compound 0.00316 µM) was 23.1%; the viability, T/C (second compound 0.316 µM, first compound 0.01 µM) was 20.8%; the viability, T/C under setting [8] is 24.1%; the viability, T/C under setting [9] is 21.6%. Moreover, the viability, T/C reads like this: (second compound 1 µM, first compound 0.000316 µM) 29.7%; (second compound 1 µM, first compound 0.001 µM) 27.1%; (second compound 1 µM, first compound 0.00316 µM) 27.1%; (second compound 1 µM, first compound 0.01 µM) 20.9%; under setting [10], 23.6%; under setting [11], 22.8%. Moreover, the viability, T/C is, setting by setting: (second compound 3.16 µM, first compound 0.000316 µM) 24.8%; (second compound 3.16 µM, first compound 0.001 µM) 25.9%; (second compound 3.16 µM, first compound 0.00316 µM) 25.2%; (second compound 3.16 µM, first compound 0.01 µM) 25.5%; under setting [12], 23.4%; under setting [13], 21.1%. Besides, the viability, T/C is 21.9% (second compound 10 µM, first compound 0.000316 µM); 23.5% (second compound 10 µM, first compound 0.001 µM); 24.6% (second compound 10 µM, first compound 0.00316 µM); 20.2% (second compound 10 µM, first compound 0.01 µM); 19.6% under setting [14]; 20.1% under setting [15].

In the case of `CC(C)NCC(C(=O)N1CCN(c2ncnc3c2C(C)CC3O)CC1)c1ccc(Cl)cc1` (stereo not given) + COc1cc2nc(C)nc(NC(C)c3cc(N)cc(C(F)(F)F)c3)c2cc1OC1CCOC1, the concentration for half-maximal inhibition (IC50) by setting is: under setting [1], 484 nM; under setting [2], 467 nM; under setting [3], 216 nM; under setting [4], 415 nM; under setting [5], 50.7 nM. Moreover, the viability, T/C is, setting by setting: under setting [6], 75.4%; under setting [7], 69.1%; (second compound 0.1 µM, first compound 0.316 µM) 56.2%; (second compound 0.1 µM, first compound 1 µM) 42%; (second compound 0.1 µM, first compound 3.16 µM) 14.1%; (second compound 0.1 µM, first compound 10 µM) 33.5%. Moreover, the viability, T/C under setting [8] is 75.8%; the viability, T/C under setting [9] is 65.2%; the viability, T/C (second compound 0.316 µM, first compound 0.316 µM) was 59.1%; the viability, T/C (second compound 0.316 µM, first compound 1 µM) was 33.9%; the viability, T/C (second compound 0.316 µM, first compound 3.16 µM) was 8.71%; the viability, T/C (second compound 0.316 µM, first compound 10 µM) is 23.5%. For the same compound, the viability, T/C was 71.5% under setting [10]; 58.5% under setting [11]; 44% (second compound 1 µM, first compound 0.316 µM); 32.2% (second compound 1 µM, first compound 1 µM); 7.19% (second compound 1 µM, first compound 3.16 µM); 2.61% (second compound 1 µM, first compound 10 µM). The viability, T/C was 60.1% under setting [12]; 58.3% under setting [13]; 66.4% (second compound 3.16 µM, first compound 0.316 µM); 12% (second compound 3.16 µM, first compound 1 µM); 5.68% (second compound 3.16 µM, first compound 3.16 µM); 19.6% (second compound 3.16 µM, first compound 10 µM). Also, the viability, T/C was 56.7% under setting [14]; 39.8% under setting [15]; 21.6% (second compound 10 µM, first compound 0.316 µM); 5.09% (second compound 10 µM, first compound 1 µM); 3.01% (second compound 10 µM, first compound 3.16 µM); 4.23% (second compound 10 µM, first compound 10 µM).

Consider `COc1cc2nc(C)nc(NC(C)c3cc(N)cc(C(F)(F)F)c3)c2cc1OC1CCOC1` (stereo not given), for which the viability, T/C (compound 0.316 µM) was 71.1% [middle of 17 runs]. Besides, the IC50 is > 10000 nM and 2620 nM and 2850 nM (compound alone, run of 07/12/2021); > 10000 nM (compound alone, run of 07/19/2021); > 10000 nM (compound alone, run of 07/26/2021).
